How the values were obtained:
[1] = Encapsulation of small molecules in PEG-1500-DMOI micelles, determined by UV spectroscopy; format: physicochemical; details: for loading of complexed drug: complexed with PEG-1500-DMOI from 4:1 chloroform/methanol, taken up in water, UV
Description: Benzo[a]Pyrene (BP), a dye and potent carcinogen, was chosen as a hydrophobic model because BP encapsulation within aqueous micelles of the PEG-1500-DMOI polymer can be monitored by UV absorption spectroscopy. The amount of dye encapsulated in the micelles was readily determined by UV spectroscopy since an absorbance signal due to benzo[a]pyrene appeared in the 340-450 nm region only when the dye was solubilized within the aqueous micelle. Different concentrations of dye were prepared in dichloromethane and each was added to a constant amount of polymeric micelle solution (1 ml of 100 mg/ml). Polymer-dye complex films were cast on glass and dried under vacuum at room temperature overnight. The films were then removed and redissolved in water by sonication at 35° C. for 10 minutes, and purified by filtration from excess dye. A homogenous, stable solution of the dye was formed at concentrations of more than 0.25 wt %, indicating partitioning of the dye into the micellar core. The maximum loading capacity of the dye was 0.88% (w/w). […] A partition coefficient of 5×10^4 was determined, indicating strong partitioning.
In other experiments using this encapsulation method, PEG-1500-DMOI was complexed with either camptothecin or etoposide by combining the polymer and drug in a 4:1 chloroform/methanol mixture, then evaporating the resulting mixture overnight at room temperature under vacuum. The residue was treated with 5 ml water and filtered to remove any uncomplexed camptothecin. The solution was then examined with UV spectroscopy to determine the amount of complexed drug.

HIVLAI = details: unencapsulated drug; cited from earlier work
mammalian cell cultures = assay: Cell growth, morphology and viability (XTT dye) in mammalian cell cultures; format: cell-based; details: 1 mM extracellular unencapsulated drug
Description: […] At higher concentrations (e.g., 30 μM), loss of cell viability was seen. Host cell translation was monitored by the expression of inducible β-galactosidase activity; cell viability was monitored spectrophotometrically using XTT dye.

CD4+HeLa cells = details: non-encapsulated drug; cited from earlier work
HIV-1 Rev = details: CD4+HeLa cells, non-encapsulated drug; cited from earlier work
[2] = in aqueous PEG-1500-DMOI micelles

Compound: CC[C@@]1(O)C(=O)OCc2c1cc1n(c2=O)Cc2cc3ccccc3nc2-1 [camptothecin]
- loading of complexed drug [1]: 1.25 % (w/w)

Compound: NC[C@@H]1O[C@H](O[C@H]2[C@@H](O)[C@H](O[C@@H]3[C@@H](O)[C@H](N)C[C@H](N)[C@H]3O[C@H]3O[C@H](CN)[C@@H](O)[C@H](O)[C@H]3N)O[C@@H]2CO)[C@H](N)[C@@H](O)[C@@H]1O [unencapsulated neomycin B, neomycin B]
- concentration that inhibits HIV production, previously reported (HIVLAI): 2,500-5,000 μM

Compound: c1ccc2c(c1)cc1ccc3cccc4ccc2c1c34 [Benzo[a]Pyrene]
- partition coefficient [1]: 5×10^4
- dye concentration at which a homogenous, stable solution was formed [1, 2]: more than 0.25 wt %
- maximum loading capacity of the dye [1, 2]: 0.88 % (w/w)

Compound: COc1cc([C@@H]2c3cc4c(cc3[C@@H](O[C@@H]3O[C@@H]5CO[C@@H](C)O[C@H]5[C@H](O)[C@H]3O)[C@H]3COC(=O)[C@H]23)OCO4)cc(OC)c1O [etoposide]
- loading of complexed drug [1]: 3.1 % (w/w)

Compound: C=C(NC(=O)C(=C)NC(=O)c1csc(C2=N[C@@H]3c4csc(n4)[C@H]4NC(=O)c5csc(n5)[C@H]([C@](C)(O)[C@@H](C)O)NC(=O)[C@H]5CSC(=N5)/C(=C/C)NC(=O)[C@H]([C@@H](C)O)NC(=O)c5csc(n5)[C@]3(CC2)NC(=O)[C@H](C)NC(=O)C(=C)NC(=O)[C@H](C)NC(=O)[C@H]([C@@H](C)CC)N[C@@H]2C=Cc3c([C@H](C)O)cc(nc3[C@H]2O)C(=O)O[C@@H]4C)n1)C(N)=O [unencapsulated thiostrepton, thiostrepton]
- effect on cell growth or cell morphology (mammalian cell cultures): no detectable effect

Compound: kazugamycin [non-encapsulated kazugamycin]
- concentration at which decreased cell proliferation and necrosis occur (CD4+HeLa cells): 35 µM
- concentration that blocks HIV-1 Rev function (HIV-1 Rev): 25 µM

Source: patent publication US6521736B2, “Amphiphilic polymeric materials” (priority 2000, dated 2003)
